Values of other authors, collected in patent US20040086492A1, “Method of treating tumor and consignment system of proliferating and processing activated lymphocytes to be used in parallel to pdt” (priority 2001, published 2004).

Conditions: stated as a characteristic of Photofrin

rate taken into cancerous tissue relative to normal tissue: approximately 10 times
Substance: porfirmer sodium [Photofrin]
